In patent US11535598B2, “Histone deacetylases (HDACs) inhibitors” (ANNJI PHARMACEUTICAL CO., LTD., priority 2017, dated 2022):

Columns and labels:
Human HDAC1 = Human HDAC1 (Homo sapiens (Human), UniProt Q13547); experiment: HDAC enzymatic assay, HDAC1; type: biochemical; details: 10-dose IC50 mode with a 3-fold serial dilution; read-out: HDAC subtypes IC50 HDAC1
Procedure: (§1) The IC50 values for aforementioned compounds against HDACs were determined. HDAC 1 to 11 can be assayed by using acetylated AMC-labeled peptide substrate.
(§2) Human HDAC1 GenBank Accession No. NM_004964): Full length with C-terminal GST tag, MW=79.9 kDa, Human HDAC2 (GenBank Accession No. Q92769): Full length with C-terminal His tag, MW=60 kDa. Human HDAC3/NcoR2 (GenBank Accession No. […] for HDAC3, GenBank Accession No. NM_006312 for NcoR2): Complex of human HDAC3, full length with C-terminal His tag, MW=49.7 kDa, and human NCOR2, N-terminal GST tag, MW=39 kDa. Human HDAC6 (GenBank Accession No. BC069243): Full length with N-terminal GST tag, MW=159 kDa. Human HDAC8 (GenBank Accession No. NM018486): Full length, MW=42 kDa, expressed in an E. coli expression system.
(§3) Human HDAC1, Human HDAC2, Human HDAC3/NcoR2, Human HDAC6, Human HDAC10, and Human HDAC11 were all expressed by baculovirus expression system in Sf9 cells.
(§4) 50 μM HDAC substrate. 1% DMSO final. Incubation for 2 hours at 30° C.

Human HDAC8 = Human HDAC8 (Homo sapiens (Human), UniProt Q9BY41); experiment: HDAC enzymatic assay, HDAC8; type: biochemical; details: 10-dose IC50 mode with a 3-fold serial dilution; read-out: HDAC subtypes IC50 HDAC8
Human HDAC8, sequence (Q9BY41 whole entry): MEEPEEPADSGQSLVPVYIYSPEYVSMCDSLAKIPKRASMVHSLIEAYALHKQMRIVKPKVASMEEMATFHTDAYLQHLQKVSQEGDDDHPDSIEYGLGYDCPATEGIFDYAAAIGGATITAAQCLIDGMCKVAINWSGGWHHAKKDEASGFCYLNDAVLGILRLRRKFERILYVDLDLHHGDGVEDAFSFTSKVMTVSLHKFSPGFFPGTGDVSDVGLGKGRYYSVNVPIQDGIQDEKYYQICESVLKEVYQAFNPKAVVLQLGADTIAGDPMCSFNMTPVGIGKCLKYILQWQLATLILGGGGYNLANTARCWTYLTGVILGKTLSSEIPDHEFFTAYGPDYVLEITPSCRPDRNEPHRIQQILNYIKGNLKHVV
Procedure: as §1, §2, §4

Human HDAC6 = Human HDAC6 (Homo sapiens (Human), UniProt Q9UBN7); experiment: HDAC enzymatic assay, HDAC6; type: biochemical; details: 10-dose IC50 mode with a 3-fold serial dilution; read-out: HDAC subtypes IC50 HDAC6
Human HDAC6, sequence (Q9UBN7 whole entry): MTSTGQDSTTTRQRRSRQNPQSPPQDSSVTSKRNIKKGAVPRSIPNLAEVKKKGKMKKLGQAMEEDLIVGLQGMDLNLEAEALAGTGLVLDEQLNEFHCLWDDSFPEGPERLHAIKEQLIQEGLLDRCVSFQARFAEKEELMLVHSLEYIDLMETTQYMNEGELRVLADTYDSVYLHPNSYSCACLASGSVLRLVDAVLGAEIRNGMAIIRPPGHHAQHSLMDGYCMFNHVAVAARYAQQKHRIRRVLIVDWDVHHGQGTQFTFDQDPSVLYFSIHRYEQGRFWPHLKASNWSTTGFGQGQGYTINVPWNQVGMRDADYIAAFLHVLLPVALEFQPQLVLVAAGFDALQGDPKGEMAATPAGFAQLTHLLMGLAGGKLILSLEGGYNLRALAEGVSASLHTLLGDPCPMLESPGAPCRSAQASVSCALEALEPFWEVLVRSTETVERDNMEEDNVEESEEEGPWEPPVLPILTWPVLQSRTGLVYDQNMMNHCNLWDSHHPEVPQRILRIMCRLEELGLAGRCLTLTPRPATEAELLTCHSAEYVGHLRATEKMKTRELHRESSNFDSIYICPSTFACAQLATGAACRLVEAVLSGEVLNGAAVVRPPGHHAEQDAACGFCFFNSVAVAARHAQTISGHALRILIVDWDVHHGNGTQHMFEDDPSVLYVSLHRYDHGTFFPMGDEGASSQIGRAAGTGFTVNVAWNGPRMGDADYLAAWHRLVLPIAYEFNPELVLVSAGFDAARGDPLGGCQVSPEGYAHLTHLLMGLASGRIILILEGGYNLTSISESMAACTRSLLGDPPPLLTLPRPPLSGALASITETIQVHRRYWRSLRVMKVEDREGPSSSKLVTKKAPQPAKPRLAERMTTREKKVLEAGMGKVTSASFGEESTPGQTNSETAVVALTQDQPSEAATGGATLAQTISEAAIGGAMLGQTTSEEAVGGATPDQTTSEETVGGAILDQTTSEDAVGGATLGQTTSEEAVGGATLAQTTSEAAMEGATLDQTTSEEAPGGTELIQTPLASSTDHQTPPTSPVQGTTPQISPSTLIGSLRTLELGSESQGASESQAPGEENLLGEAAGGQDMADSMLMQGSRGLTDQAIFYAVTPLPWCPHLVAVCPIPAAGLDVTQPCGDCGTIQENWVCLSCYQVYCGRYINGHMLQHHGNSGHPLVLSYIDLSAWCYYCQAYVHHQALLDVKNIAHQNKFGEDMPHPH
Procedure: as §1, §2, §3, §4

Human HDAC11 = Human HDAC11 (Homo sapiens (Human), UniProt Q96DB2); experiment: HDAC enzymatic assay, HDAC11; type: biochemical; details: 10-dose IC50 mode with a 3-fold serial dilution; read-out: HDAC subtypes IC50 HDAC11
Human HDAC11, sequence (Q96DB2 whole entry): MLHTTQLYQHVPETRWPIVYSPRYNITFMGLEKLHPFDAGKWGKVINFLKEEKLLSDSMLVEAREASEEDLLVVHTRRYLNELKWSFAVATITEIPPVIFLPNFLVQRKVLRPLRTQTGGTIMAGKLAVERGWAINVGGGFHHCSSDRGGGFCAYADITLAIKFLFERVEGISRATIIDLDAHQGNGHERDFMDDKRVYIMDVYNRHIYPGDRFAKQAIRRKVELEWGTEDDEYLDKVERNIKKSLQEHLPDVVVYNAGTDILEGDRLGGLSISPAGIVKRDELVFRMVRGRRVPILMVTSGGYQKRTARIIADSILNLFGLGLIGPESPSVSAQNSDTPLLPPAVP
Procedure: as §1, §2, §3, §4

U87MG = details: human, 72 h
Procedure: (§5) Cells were seeded in 96-well plates at a density of 5×10^3 cells per well and allowed to attach for 24 h before compound treatment. […] At end of the treatment period 72 h, 20 μl (5 mg/mL) 3-(4,5-dimethylthiazol-2-yl)-2,5-diphenyl-tetrazolium bromide (MTT) reagent was added each well. After 4 h incubation at 37° C., the supernatant was aspirated and the formazan crystals were dissolved in 100 μl of DMSO at 37° C. for 10 min with gentle agitation. The absorbance was measured at 570 nm using the Molecular Devices Microplate Reader. […] IC50 values were calculated from the relative viability values and concentrations by regression analysis.

LNCap = details: human, 72 h
A549 = details: human, 72 h
Procedure: as §5

PANC1 = details: human, 72 h
Procedure: as §5

HepG2 = details: human, 72 h
Procedure: as §5

in vitro [1] = details: human
Procedure: as §5

in vitro [2] = details: monkey
Procedure: as §5

HL60 = experiment: Cell proliferation assay MTT, HL60; details: read-out: Cytotoxicity IC50 Leukemia HL60, 72 hr treated
Procedure: as §5

MV4-11 = experiment: Cell proliferation assay MTT, MV4-11; details: human, MV4-11 leukemia cells, 72 h
Procedure: as §5

MOLM13 = experiment: Cell proliferation assay MTT, MOLM13; details: human, MOLM13 leukemia cells, 72 h
Procedure: as §5

Human HDAC1, sequence (Q13547 whole entry): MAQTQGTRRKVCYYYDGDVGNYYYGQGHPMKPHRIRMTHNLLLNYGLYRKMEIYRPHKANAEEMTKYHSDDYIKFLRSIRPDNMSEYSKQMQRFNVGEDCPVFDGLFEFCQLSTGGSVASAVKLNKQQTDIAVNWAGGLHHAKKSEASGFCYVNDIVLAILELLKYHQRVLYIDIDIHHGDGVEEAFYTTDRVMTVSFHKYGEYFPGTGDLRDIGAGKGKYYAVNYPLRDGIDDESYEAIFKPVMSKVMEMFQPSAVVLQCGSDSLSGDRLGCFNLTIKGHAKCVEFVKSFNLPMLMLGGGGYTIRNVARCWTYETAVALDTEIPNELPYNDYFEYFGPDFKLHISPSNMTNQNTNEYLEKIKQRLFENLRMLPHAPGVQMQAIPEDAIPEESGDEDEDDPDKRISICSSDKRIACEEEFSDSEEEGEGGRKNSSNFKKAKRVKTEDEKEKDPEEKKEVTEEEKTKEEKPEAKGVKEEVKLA

SMILES	IC50 (Human HDAC1) [µM]	IC50 (Human HDAC8) [µM]	IC50 (Human HDAC6) [µM]	IC50 (Human HDAC11) [µM]	IC50 (U87MG) [µM]	IC50 (LNCap) [µM]	IC50 (A549) [µM]	IC50 (PANC1) [µM]	IC50 (HepG2) [µM]	IC50 at 72 h (in vitro [1]) [µM]	IC50 at 72 h (in vitro [2]) [µM]	IC50 (HL60) [µM]	IC50 (MV4-11) [µM]	IC50 (MOLM13) [µM]
O=C(NO)c1ccc(Cn2c(=O)n(CCc3ccccc3)c(=O)c3ccc(O)cc32)cc1 [Compound 4, N-hydroxy-4-((7-hydroxy-2,4-dioxo-3-phenethyl-3,4-dihydroquinazolin-1(2H)-yl)methyl)benzamide]	8.28	2.75	0.028	5.5	4.28 ± 0.67	2.97 ± 0.22	8.04 ± 0.28	6.54 ± 0.11	6.12 ± 0.33	147.1 ± 0.51	156.4 ± 0.42	0.67 ± 0.09	0.75 ± 0.11	0.81 ± 0.09
O=C(NO)c1ccc(Cn2c(=O)n(CCc3ccccc3)c(=O)c3ccc(Cl)cc32)cc1 [Compound 8, 4-((7-chloro-2,4-dioxo-3-phenethyl-3,4-dihydroquinazolin-1(2H)-yl)methyl)-N-hydroxybenzamide]	9.54	1.64	0.021		2.1 ± 0.06	1.07 ± 0.14	2.28 ± 0.27	3.52 ± 0.09	2.74 ± 0.29	75.79 ± 0.12	85.74 ± 0.17	0.44 ± 0.04	0.37 ± 0.02	0.48 ± 0.08
O=C(NO)c1ccc(Cn2c(=O)n(CCc3ccc(F)cc3)c(=O)c3ccccc32)cc1 [Compound 14, 4-((3-(4-fluorophenethyl)-2,4-dioxo-3,4-dihydroquinazolin-1(2H)-yl)methyl)-N-hydroxybenzamide]	10.8	1.05	0.023	14.7	6.31 ± 0.63	4.25 ± 0.21	6.35 ± 0.11	> 10	6.82 ± 0.12	83.81 ± 0.19	116 ± 0.23	1.37 ± 0.07	1.77 ± 0.05	1.62 ± 0.09
O=C(Cc1ccc(Cn2c(=O)n(CCc3ccccc3)c(=O)c3ccccc32)cc1)NO [Compound 16, 2-(4-((2,4-dioxo-3-phenethyl-3,4-dihydroquinazolin-1(2H)-yl)methyl)phenyl)-N-hydroxyacetamide]					6.28 ± 0.12	6.05 ± 0.31	7.07 ± 0.42	8.73 ± 0.24	6.99 ± 1.07	163.2 ± 0.27	160.3 ± 0.23	2.77 ± 0.04	3.04 ± 0.08	3.29 ± 0.16
O=C(NO)c1ccc(Cn2c(=O)n(CCc3ccccc3)c(=O)c3cc(F)ccc32)cc1 [Compound 17, 4-((6-fluoro-2,4-dioxo-3-phenethyl-3,4-dihydroquinazolin-1(2H)-yl)methyl)-N-hydroxybenzamide]	13.4	1.16	0.057	16.7	6.13 ± 0.78	5.74 ± 0.51	8.96 ± 0.17	8.47 ± 0.04	6.64 ± 0.92	100.5 ± 0.37	123.2 ± 0.33	2.37 ± 0.11	3.13 ± 0.09	356 ± 0.09
O=C(Cc1ccc(Cn2c(=O)n(CCc3ccccc3)c(=O)c3ccccc32)c(F)c1)NO [Compound 19, 2-(4-((2,4-dioxo-3-phenethyl-3,4-dihydroquinazolin-1(2H)-yl)methyl)-3-fluorophenyl)-N-hydroxyacetamide]					2.64 ± 0.04	1.87 ± 0.18	2.98 ± 0.12	4.29 ± 0.08	2.75 ± 0.02	32.7 ± 0.03	37.82 ± 0.03	1.68 ± 0.09	1.87 ± 0.03	1.74 ± 0.08
N#Cc1ccc2c(=O)n(CCc3ccccc3)c(=O)n(Cc3ccc(CC(=O)NO)cc3)c2c1 [Compound 23, 2-(4-((7-cyano-2,4-dioxo-3-phenethyl-3,4-dihydroquinazolin-1(2H)-yl)methyl)phenyl)-N-hydroxyacetamide]					4.12 ± 0.06	4.05 ± 0.07	4.21 ± 0.03	5.12 ± 0.11	4.24 ± 0.03	92.11 ± 0.69	95.27 ± 0.58	1.25 ± 0.08	1.19 ± 0.07	2.32 ± 0.07
